Measured values from patent publication US20130034594A1, “FIBERS CONTAINING FERRATES AND METHODS” (BATTELLE MEMORIAL INSTITUTE, priority 2010, published 2013).

Experiments:
[1] = Thermal stability of sodium ferrate(VI) (temperature limit); type: physicochemical
Source text: The ferrate fiber of the present invention can disperse the ferrate formulation mentioned above into one or more suitable polymers to produce the ferrate fiber. Broadly, a formulation of the ferrate is mixed/blended with at least one nonaqueous polymer, and then the mixture can be dispersed and cooled to solidify into the fiber of the present invention. The nonaqueous polymer is defined above. A conventional extrusion method can be used to co-extrude/disperse the ferrate/polymer mixture. Preferably, the polymer is in a liquid form before blending with the ferrate formulation. The polymer can be melted into a liquid polymer before blending. The ferrate is highly oxidative so it is normally not placed in contact with any high temperature organic polymer, nor is it co-extruded/dispersed with other polymers under a relatively high temperature using a conventional extrusion method. Such blending and co-extrusion might decompose the ferrate prematurely. […] Most suitable polymers can melt at a much lower temperature. Therefore, the ferrate(VI) can be blended and then co-extruded/dispersed with one or more melted liquid polymers without causing the ferrate to decompose prematurely even using a relatively vigorous conventional extrusion method.

[2] = Thermal storage stability under Army Regulation (AR) 70-38 test conditions; type: physicochemical
Description: Unexpectedly, unlike all peroxide materials, we found potassium ferrate(VI) to be thermally stable as defined by Army Regulation (AR) 70-38 test conditions. Therefore potassium ferrate(VI) was determined to be stable to storage for long periods, at least 98 days at 71° C., and at least 82 days under conditions of cycling daily from 23° C. to 71° C. and back again. […] In these tests, losses with time varied slightly with test vials ranging from <1% to 10% (±3%) loss respectively after the test periods given.

| Molecule | stable up to (temperature) [1] | stable to storage (time) ([2]; at 71° C., pure (80-100% analytical grade) or moderate purity (50-80% technical grade)) | stable to storage (time) ([2]; cycling daily from 23° C. to 71° C. and back again, pure or technical grade) | estimated storage stability ([2]; estimated from the AR 70-38 results) |
| --- | --- | --- | --- | --- |
| [Na+].[Na+].[O]=[Fe](=[O])([O-])[O-] [sodium ferrate(VI)] | up to 270 °C |  |  |  |
| potassium ferrate(VI) |  | at least 98 days | at least 82 days | sufficiently stable for several years of storage |
